Converted amounts (≈) assume the structure as drawn. “And” between values parts separate entries of the source, which are not always exact repeats. Equal entries are not always repeated. Where two headings read alike, the source gives them in different places. Marks after values point to notes of the source that are not given here.
Key:
[1] = system: Mannheimia haemolytica MH 10720 (154, BRD field isolate); assay: MIC, broth-microdilution (CLSI VET01-A4); format: cell-based
Procedure, shortened: (§1)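 Broth microdilution per CLSI VET01-A4 using doubling dilution series of test compound; results interpreted per CLSI VET01-S3. MIC recorded as lowest concentration giving no turbidity visible to the unaided eye.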

[2] = system: Mannheimia haemolytica MH 12587 (1071, BRD field isolate, macrolide-resistance: erm+, E+); assay: MIC, broth-microdilution (CLSI VET01-A4); format: cell-based
Procedure, shortened: as §1

[3] = system: Mannheimia haemolytica MH 6357 (M7/2, reference strain, cattle infection strain); assay: MIC, broth-microdilution (CLSI VET01-A4); format: cell-based
Procedure, shortened: as §1

[4] = system: Mannheimia haemolytica MH 6374 (ATCC 33396, reference strain); assay: MIC, broth-microdilution (CLSI VET01-A4); format: cell-based
Procedure, shortened: as §1

[5] = system: Pasteurella multocida PM 10775 (080130003051, BRD field isolate); assay: MIC, broth-microdilution (CLSI VET01-A4); format: cell-based
Procedure, shortened: as §1

[6] = system: Pasteurella multocida PM 12080 (IV102277-0093, BRD field isolate); assay: MIC, broth-microdilution (CLSI VET01-A4); format: cell-based
Procedure, shortened: as §1

[7] = system: Pasteurella multocida PM 6267 (P 2225 (L386), reference strain, mouse infection strain); assay: MIC, broth-microdilution (CLSI VET01-A4); format: cell-based
Procedure, shortened: as §1

[8] = system: Pasteurella multocida PM 6391 (ATCC 43137, reference strain); assay: MIC, broth-microdilution (CLSI VET01-A4); format: cell-based
Procedure, shortened: as §1

[9] = system: Acinetobacter baumanii AB 15919 (IV369-2012, dermatitis field isolate); assay: MIC, broth-microdilution (CLSI VET01-A4); format: cell-based; settings: strain AB 15919
Procedure: (§2) The Minimum inhibitory concentrations (MIC) of compounds according to the invention were determined by the broth-microdilution method according to CLSI document VET01-A4.
(§3) Microdilution trays containing a doubling dilution series of the test compound were used for the tests.
(§4) The MIC results were interpreted according to the CLSI documents VET01-S3. The lowest concentration of compound at which no visible growth (i.e. no turbidity) detected by the unaided eye was recorded as the MIC.

[10] = system: Acinetobacter baumanii AB 16496 (ATCC 19606, reference strain); assay: MIC, broth-microdilution (CLSI VET01-A4); format: cell-based; settings: strain AB 16496
Procedure: as §2, §3, §4

[11] = system: Pasteurella multocida PM 14426 (0006-439, BRD field isolate, macrolide-resistant); assay: MIC, broth-microdilution (CLSI VET01-A4); format: cell-based; settings: strain PM 14426, macrolide-resistant
Procedure: as §2, §3, §4

[12] = system: Staphylococcus aureus SA 6114 (ATCC 29213, reference strain); assay: MIC, broth-microdilution (CLSI VET01-A4); format: cell-based; settings: strain SA 6114
Procedure: as §2, §3, §4

[13] = system: M. haemolytica M7/2, serotype A:1, ID 6357; assay: Mannheimia haemolytica cattle lung infection model, efficacy (Example 8); format: in vivo, Holstein black pied cattle calves; parameters: key to General behavior, score: 0 = normal; 1 = slightly depressive; 2 = moderately depressive; 3 = highly depressive; 4 = recumbency; key to Re-isolation of bacteria, Left Bronchial swab / Re-isolation of bacteria, Right Bronchial swab: − no bacterial growth; + low; ++ medium; +++ high amount of bacterial growth; settings: for Food consumption, cumulated for all animals in the group: 3 calves; for Lung score (including grade and percent Lung consolidation): grade of consolidation 0 to 3
Procedure: 15 male Holstein black pied cattle calves of ca. 4 months age were randomly assigned to the study groups ensuring an equal distribution of body weight. The animal weight was approximately 98-133.5 kg on D-1.
Calves were infected on Day 0 via intratracheal instillation of approximately 300 mL of a M. haemolytica PBS suspension containing approximately 3×10^9 CFU M. haemolytica in late log phase.
Three animals each were treated one hour after infection by subcutaneous (SC) administration of Compound 329 in an aqueous 30% (w/v) Captisol® solution for injection at a dose of 10 mg/kg BW.
The respective dose volume was injected on the sides of the thoracic wall. Injection volumes exceeding 10 mL were divided into one portion of 10 mL administered to the left side and the remaining rest administered at different injection sites on the other side. Animals in one control group were treated with a commercially available Enrofloxacin solution (Baytril ® 10%, Bayer Animal Health) at the recommended dose of 10 mg/kg BW. The second control group was treated with the galenic diluent (30% (w/v) Captisol®, dissolved in water) as placebo.
Food consumption was measured. Single individual blood samples were collected from the 12 animals at the following time points: D-1 (predose), 30 minutes, 2, 4, 6, 24 h and at D2 (ca. 45 h) after administration. After the day 2 blood sampling, the infected cattle were slaughtered. The lungs were weighted. Lung states and lung scores were observed morphologically.
At necropsy from animals treated with test items or the positive control, samples of epithelial lining fluid (ELF), lung tissue, and additionally tissue of liver and kidney were collected. From each lung two bacteriological swaps were taken from the left and right bronchus.
From each lung two tissue samples were collected by clipping from at least two locations, one from morphologically unchanged tissue, one from the edge of pathomorphologically changed areas.

[14] = infected calves, SC 10 mg/kg, in words
[15] = section on day 2, infected calves, SC 10 mg/kg, individual animals and mean, 10 mg/kg
[16] = section on day 2, infected calves, SC 10 mg/kg, individual animals and mean, 10 mg/kg, mean
[17] = section on day 2, infected calves, SC single 10 mg/kg, individual animals

What does the source list for `CC(C)(N)C(NC(=O)c1ccc(C#Cc2ccc(CNC3CC3)cc2)cc1)C(=O)NO` (centres unmarked) [C. 329]?
MIC ([1]; Mannheimia haemolytica MH 10720, read-out: MIC MH 10720): 0.4 µM; MIC ([1]; strain MH 10720): 0.5 µg/mL; MIC MH 12587 ([2]; Mannheimia haemolytica MH 12587, macrolide-resistant): 1.6 µM (≈ 0.673 µg/mL); MIC ([2]; strain MH 12587, macrolide-resistant): 0.5 µg/mL (≈ 1.19 µM); MIC ([3]; Mannheimia haemolytica MH 6357, read-out: MIC MH 6357): 1.6 µM; MIC ([3]; strain MH 6357): 0.5 µg/mL; MIC ([4]; Mannheimia haemolytica MH 6374, read-out: MIC MH 6374): 0.8 µM; MIC ([4]; strain MH 6374): 0.25 µg/mL; MIC PM 10775 ([5]; Pasteurella multocida PM 10775): <=0.1 μM; MIC ([5]; strain PM 10775): ≤0.016 µg/mL; MIC PM 12080 ([6]; Pasteurella multocida PM 12080): <=0.1 μM; MIC ([6]; strain PM 12080): 0.032 µg/mL (≈ 0.0761 µM); MIC PM 6267 ([7]; Pasteurella multocida PM 6267): <=0.1 μM; MIC ([7]; strain PM 6267): ≤0.016 µg/mL; MIC PM 6391 ([8]; Pasteurella multocida PM 6391): <=0.1 μM; MIC ([8]; strain PM 6391): 0.063 µg/mL (≈ 0.15 µM); MIC [9]: 16 µg/mL (≈ 38 µM); MIC [10]: >16 µg/mL; MIC [11]: ≤0.016 µg/mL; MIC [12]: >16 µg/mL; General behavior, score ([13]; D 0 am (before infection), calves, SC 10 mg/kg, individual animals and mean, 10 mg/kg): 0; General behavior, score ([13]; D 0 am (before infection), calves, SC 10 mg/kg, individual animals and mean, 10 mg/kg, mean): 0.0 score; Food consumption, cumulated for all animals in the group ([13]; D 0 am, after infection and treatment, SC 10 mg/kg): 470 g; Food consumption, cumulated for all animals in the group ([13]; D 0 pm, SC 10 mg/kg): 1800** g; General behavior, score ([13]; D 0 pm, calves infected with M. haemolytica, SC 10 mg/kg 1 h after infection, individual animals and mean, 10 mg/kg): 2 and 1 (2×); General behavior, score ([13]; D 0 pm, calves infected with M. haemolytica, SC 10 mg/kg 1 h after infection, individual animals and mean, 10 mg/kg, mean): 1.3 score; General behavior, score ([13]; D 1 am, calves infected with M. haemolytica, SC 10 mg/kg 1 h after infection, individual animals and mean, 10 mg/kg): 1 and 0 (2×); General behavior, score ([13]; D 1 am, calves infected with M. haemolytica, SC 10 mg/kg 1 h after infection, individual animals and mean, 10 mg/kg, mean): 0.3 score; General behavior, score ([13]; D 1 pm, calves infected with M. haemolytica, SC 10 mg/kg 1 h after infection, individual animals and mean, 10 mg/kg): 1 (2×) and 0; General behavior, score ([13]; D 1 pm, calves infected with M. haemolytica, SC 10 mg/kg 1 h after infection, individual animals and mean, 10 mg/kg, mean): 0.7 score; General behavior, score ([13]; D 2 am, calves infected with M. haemolytica, SC 10 mg/kg 1 h after infection, individual animals and mean, 10 mg/kg): 0; General behavior, score ([13]; D 2 am, calves infected with M. haemolytica, SC 10 mg/kg 1 h after infection, individual animals and mean, 10 mg/kg, mean): 0.0 score; Food consumption, cumulated for all animals in the group ([13]; D +1 am, SC 10 mg/kg): 4800 g; Food consumption, cumulated for all animals in the group ([13]; D +1 pm, SC 10 mg/kg): 4800 g; Food consumption, cumulated for all animals in the group ([13]; D −1 (before infection), SC 10 mg/kg): 4800 g; general behavior and food uptake [13, 14]: comparable to the positive control; mean bacterial re-isolation [13, 14]: Very low; Lung score (including grade and percent Lung consolidation) [13, 15]: 32.4 and 29.5 and 37.7; Lung score (including grade and percent Lung consolidation) [13, 16]: 33.2; Lung consolidations [13, 15]: 20.9% and 14.8% and 21.6%; Lung weight [13, 15]: 1717 g and 1549 g and 1583 g; Lung/body weight ratio [13, 15]: ~1.3% and 1.36% and 1.30% and 1.41%; Lung consolidations [13, 16]: 19.1%; Lung weight [13, 16]: 1616 g; Re-isolation of bacteria, Left Bronchial swab [13, 17]: −; Re-isolation of bacteria, Right Bronchial swab [13, 17]: −; efficacy in the lung model infection with M. haemolytica in calves ([13]; single SC treatment with 10 mg/kg BW, conclusion in words): good efficacy

Reference: US20230000813A1, “COMPOUND FOR THE TREATMENT OF BOVINE OR SWINE RESPIRATORY DISEASE” (Intervet Inc., priority 2016, published 2023)
